Laboratory results as given in publication PMC3832545 (PLoS ONE, 2013).

Key:
MCF-7 cells = assay: MTT cell proliferation assay, MCF-7 cells; type: cell-based, human; details: 24 h, 0.1% (v/v) serum, 0.001 to 1000 nM, three independent experiments with four replicates
Experimental: Effect of test compounds on proliferation was assessed with 3-(4,5-dimethylthiazol-2-yl)-2,5-diphenyl tetrazolium bromide (MTT) assays, essentially as described previously. In brief, MC38 cells were plated in 96-well plates (5,000 cells per well) in growth medium. […] Data for relative cell numbers from the three repeated experiments, each with four replicate samples per condition, were then used to fit dose-response curves using GraphPad Prism version 6.0 (GraphPad Software Inc., La Jolla, CA, USA). Cell proliferation experiments were done with MCF-7 cells as described for MC38 cells, except that 20,000 cells were plated per well. See Materials S1 and Figure S1 for detailed supplementary information regarding cell proliferation experiments.
In initial tests the association between number of cells and absorbance at 570 nm measured in an MTT assay was examined after incubation of MC38 cells with MTT for 3 h, 3 h after plating different number of cells per well, i.e., the total incubation period was 6 h. As expected there was a highly linear relationship between absolute number of cells and the measured absorbance (Figure S1). […] After incubation for 1 day cells were rinsed in PBS (room temperature) and then starvation medium was added. […] Control samples were treated with starvation medium only. After treatment for 21 h, 10 µl stock solution of MTT dissolved in PBS (5.0 mg/ml) was added to each well, and incubation was continued for 3 h so treatment with test compounds in total lasted 24 h. At the end of the treatment period medium with test compounds was removed and formazan crystals were suspended by adding 100 µl 0.04 M HCl dissolved in isopropanol to each well and absorbance was thereafter read at 570 nm using a Emax PC plate reader (Molecular Devices LLC, Sunnyvale, CA, USA). Each treatment was done with four replicate samples and three independent experiments were performed. In each experiment the absorbance was normalized to the mean absorbance in the untreated control samples. […]

[1] = Plasma concentrations (pharmacokinetics) after sc injection in DIO-mice; type: in vivo, mouse
Experimental: The animal experiments were performed as described recently. […] Animal care and treatments were conducted in accordance with established guidelines and protocols approved by the Lady Davis Institute (protocol # 5951) and McGill University's Animal Ethics Committee. Mice were housed one mouse per cage with ad libitum access to tap water and high- or low fat diet, respectively, throughout the studies. […] The size of the tumor allografts was measured three times per week and the volume calculated using the following formula: length × width^2 × 0.52. Based on the tumor volume data for each mouse, we calculated the area under the tumor growth curves (tumor growth AUC). At termination of the experiments, mice were anesthetized with isoflurane. Blood was collected by cardiac puncture and immediately after euthanasia by cervical dislocation, samples of the liver, colon, gastrocnemius muscle and the MC38 cell tumor allografts were dissected out and snap-frozen in liquid nitrogen for later preparation of tissue lysate. Before experiments were initiated, the systemic levels of mouse insulin were measured using a Rat/Mouse Insulin ELISA kit (Millipore Corp., Bilerica, MA, USA), according to manufacturer's instructions. […] Mouse C-peptide was assayed with Rat/Mouse C-peptide 2 ELISA kit (Millipore), according to manufacturer's instructions. […] At termination of experiments whole blood was collected in EDTA-coated tubes (BD Biosciences) by cardiac puncture. […] Mouse C-peptide was assayed with Rat/Mouse C-peptide 2 ELISA kit (Millipore) according to manufacturer's instructions. […] The lower detection limit of the assay was 2 pM. […] Plate wells were coated with a mouse monoclonal anti-insulin antibody OXI005 (Novo Nordisk A/S) coupled to acceptor beads. […] Ten μl of this dilution were added to the wells. […] The lower detection limit of the assay was 233 pM.

[2] = tested on: PI3K signalling pathway in MC38 cell allografts; assay: Signalling in MC38 tumor allografts in vivo, Western blot; design: species or system mouse; details: MC38 tumor allografts collected 1 h after sc administration, DIO-mice
Experimental: We focused on different endpoints in these animal experiments and monitored tumor growth in all experiments, see Table 1. The animal experiments were performed as described recently. […] Animal care and treatments were conducted in accordance with established guidelines and protocols approved by the Lady Davis Institute (protocol # 5951) and McGill University's Animal Ethics Committee. Mice were housed one mouse per cage with ad libitum access to tap water and high- or low fat diet, respectively, throughout the studies. The temperature in the animal rooms was maintained at 20-25°C with a light/dark cycle of 14/10 hours. Mice were acclimatized for 7-10 days before experimental procedures were initiated. At experimental day 0, 2.0×10^5 (experiment A) or 5.0×10^5 (all other experiments) MC38 cells, suspended in 100 μl phosphate-buffered saline (PBS), were injected subcutaneously (sc) in the right flank of the mice. […] The size of the tumor allografts was measured three times per week and the volume calculated using the following formula: length × width^2 × 0.52. Based on the tumor volume data for each mouse, we calculated the area under the tumor growth curves (tumor growth AUC). At termination of the experiments, mice were anesthetized with isoflurane. […] Incubation with secondary antibody (horse radish peroxidase-conjugated goat anti-rabbit IgG (Santa-Cruz Biotechnology, Santa Cruz, CA, USA, cat. no 5401) and visualization of protein bands was done as described previously. The intensity of protein bands was quantified using the software ImagePro (BioRad). In each cell signalling experiment, band intensities were normalized to the mean of the vehicle-treated samples. IR and IGF-1R bands in the liver, muscle colon and MC38 cell allografts were normalized to mean band intensities in liver and muscle samples, respectively.

Row | Substance | Ranking according to mitogenic potency (MTT assay) (MCF-7 cells) | Plasma elimination half-life (t½) ([1]; mouse, in vivo, sc) | Activation of Akt, p70S6K and mTOR in tumor allografts [2] | Plasma elimination half-life (t½) ([1]; DIO-mice, 600 nmol/kg sc, estimated from plasma concentrations […] min, 1 h and 6 h after injection) | Cmax (plasma) ([1]; DIO-mice, 600 nmol/kg sc, plasma, LOCI / wash-LOCI / ELISA) | Cmax relative to plasma concentrations of endogenous mouse insulin in hyperinsulinemic DIO-mice ([1]; mouse, in vivo, sc) | Time of maximal plasma concentration ([1]; mouse, in vivo, sc) [min]
1 | IGF-1: recombinant human IGF-1 (Increlex, IPSEN Pharma GmbH) | IGF-1>X10>HI | approximately 70 min | pronounced activation | – | – | – | –
2 | human insulin [HI] | IGF-1>X10>HI | – | pronounced activation | approximately 30 min | approximately 1000 nM | – | –
3 | insulin analog B10Asp [X10] | IGF-1>X10>HI | approximately 30 min | pronounced activation | – | – | approximately 1000 fold | 15
